Data set [1] addresses T1, Heat shock protein HSP90 (Homo sapiens, UniProt P07900+P08238). Conditions: mcf7.
Description: Inhibition of human recombinant HSP90 in MCF7 cells assessed as Her2 degradation
For data set [2], the system named is RPTEC. Put plainly: Selectivity index, ratio of IC50 for human RPTEC cells to IC50 for HT29 cells. In kind it is functional, cell-based.
Data set [3] deals with RPTEC. Put plainly: Antiproliferative activity against human RPTEC. In kind it is cell-based.
The target in data set [4] is T1, Heat shock protein HSP90. Conditions: mcf7. This is another data set of the same source.
Description: Binding affinity to human recombinant HSP90 in MCF7 cell lysates assessed as inhibition of biotinylated-geldanamycin binding
Data set [5] concerns HT-29. Put plainly: Antiproliferative activity against human HT29 cells. In kind it is functional, cell-based.
The test system of data set [6] is BT-474. Put plainly: Antiproliferative activity against human BT474 cells by MTS assay. The format is functional, cell-based. (In general: Tetrazolium assays rely on reduction of a dye to a coloured formazan, in cell work by metabolically active cells.)
Data set [7] concerns RPTEC. Put plainly: Selectivity index, ratio of IC50 for human RPTEC cells to IC50 for MCF7 cells. In kind it is functional, cell-based.
The subject of data set [8] is MCF7. Put plainly: Antiproliferative activity against human MCF7 cells by MTS assay. The format is functional, cell-based.
A short description of data set [9]: Cmax in BALB/c mouse at 100 mg/kg, po. The format is ADME, organism-based. Set-up: dose 100 mg/kg, route oral. Conditions: in vivo.
Data set [10] can be described thus: Tmax in BALB/c mouse at 100 mg/kg, po. The format is ADME, organism-based. Also on record: dose 100 mg/kg, route oral. The note with it: in vivo.
A short description of data set [11]: Solubility in mouse serum at pH 7.4. In kind it is ADME, cell-free.
A short description of data set [12]: AUC in BALB/c mouse at 100 mg/kg, po. The format is ADME, organism-based. Also on record: dose 100 mg/kg, route oral. Conditions: plasma.
In data set [13] the test system is NCI-N87. Put plainly: Antitumor activity in human N87 cells xenografted mouse assessed as tumor growth inhibition at 125 mg/kg, po administered weekly 5-day-on and 2-day-off schedule for 5 weeks. In kind it is functional. Conditions: read-out: TGI.
Data set [14] in a line: Solubility in simulated intestinal fluid at pH 6.5. The format is physicochemical.
The nature of data set [15]: Half life in BALB/c mouse at 100 mg/kg, po. In kind it is ADME, organism-based. Also on record: dose 100 mg/kg, route oral. The note with it: in vivo.
Data set [16] relates to Liver microsomes. Put plainly: Metabolic stability in human liver microsomes. The format is ADME, Microsome. In general terms: Liver microsomes are vesicles of endoplasmic reticulum, rich in cytochrome P450 enzymes.
Data set [17] is described as follows: Solubility in simulated gastric fluid at pH 2.0. The format is physicochemical.
For data set [18], the system named is NCI-N87. Put plainly: Antitumor activity in human N87 cells xenografted mouse assessed as tumor growth inhibition at 90 mg/kg, ip administered weekly 5-day-on and 2-day-off schedule for 5 weeks. The format is functional. Conditions: route intraperitoneal, read-out: TGI.
Data set [19] addresses T1, Heat shock protein HSP90. The note with it: mcf7. This is another data set of the same source.
Description: Selectivity for HSP90 in MCF7 cells over HSP90 in NDF cells
Data set [20] concerns the target T1, Heat shock protein HSP90. Conditions: ndf.
Description: Binding affinity to HSP90 in human NDF cell lysates assessed as inhibition of biotinylated-geldanamycin binding
Data set [21] addresses T1, Heat shock protein HSP90.
Description: Binding affinity to human recombinant HSP90 assessed as inhibition of biotinylated-geldanamycin binding
Data set [22] relates to NCI-N87. Put plainly: Antitumor activity in human N87 cells xenografted mouse assessed as tumor growth inhibition at 60 mg/kg, po administered weekly 5-day-on and 2-day-off schedule for 5 weeks. The format is functional. Conditions: read-out: TGI. (Xenograft models place foreign cells or tissue in a host animal.)
Data set [23] in a line: Aqueous solubility of the compound. In kind it is physicochemical. Conditions: aqueous medium.

`CCOc1c(C)cnc(Cn2cnc3c(Cl)nc(N)nc32)c1C` registered an IC50 in data set [1] of 1500 nM.

As for `Cc1cnc(Cn2cnc3c(Cl)nc(N)nc32)c(C)c1Cl`, the selectivity index in [2] was found to be 10; in data set [7], 50. Further, the IC50 in data set [1] is 35 nM; in data set [3], 5000 nM; in [4], 10 nM; in data set [5] it was 500 nM; in data set [6], 300 nM; in data set [8], 100 nM.

In the case of `COc1c(C)cnc(Cn2cnc3c(Cl)nc(N)nc32)c1C.Cl`, the peak level in data set [9] (Cmax) was 10000 ng/mL. Also, the time of peak concentration (Tmax) in data set [10] is 6 min. Also, the solubility was 176 µg/mL in [11], 87 µg/mL in data set [14] and 240 µg/mL in data set [17]. The molecule further gave an AUC in [12] of 4800 ng·h/mL. The selectivity index worked out at 5 in data set [2] and 6 in [7]. In addition, the IC50 is 600 nM in data set [3], 130 nM in data set [5], 100 nM in data set [6] and 100 nM in [8]. Besides, in data set [13], the inhibition in vivo at 125 mg/kg was 87%. For the same molecule, the half-life in data set [15] was 48 min. This molecule also displayed a Stability in [16] of 86%.

In the case of `Cc1cnc(Cn2cnc3c(Cl)nc(N)nc32)c(C)c1`, the values for the IC50 in data set [1] and in [4] were 7500 nM and 4000 nM, respectively.

Take `Cc1cnc(Cn2cnc3c(Cl)nc(N)nc32)c(C)c1[S+](C)[O-]` (stereo unspecified): the IC50 in data set [1] was greater than 10000 nM; in data set [4], 10000 nM.

Turning to `Cc1cnc(Cn2cnc3c(Cl)nc(N)nc32)c(C)c1C`, the IC50 in data set [1] turned out to be 42 nM; in data set [4], 35 nM; in data set [6] it was 80 nM; in [8], 300 nM.

For the molecule `COc1c(C)c(Cl)nc(Cn2cnc3c(Cl)nc(N)nc32)c1C`, the IC50 in [1] was 90 nM; in data set [4], 25 nM; in [6], 500 nM; in data set [8], 500 nM.

Molecule `COc1cc(Cn2cnc3c(OC)nc(N)nc32)c(Br)c(OC)c1OC` had an IC50 in data set [1] of 45000 nM.

As for `CSc1c(C)cnc(Cn2cnc3c(Cl)nc(N)nc32)c1C`, the figures for the selectivity index in data set [2] and in [7] were 12 and 5, respectively. For the same molecule, the IC50 in data set [1] is 27 nM; in data set [3], 2300 nM; in data set [4], 40 nM; in data set [5] it was 200 nM; in data set [6], 90 nM; in data set [8], 500 nM.

On to `C=CCNC1=C2C[C@@H](C)C[C@H](OC)[C@H](O)[C@@H](C)/C=C(\C)[C@H](OC(N)=O)[C@@H](OC)/C=C\C=C(/C)C(=O)NC(=CC1=O)C2=O` [TANESPIMYCIN], for which the IC50 is 100 nM in data set [3], 2 nM in data set [5], 10 nM in data set [6] and 10 nM in data set [8]. For the same molecule, the inhibition in vivo at 90 mg/kg in data set [18] was determined as 70%.

In the case of `COc1cc(Cn2cnc3c(O)nc(N)nc32)c(Cl)c(OC)c1OC`, the IC50 in data set [1] worked out at 700 nM.

In data set [1], `COc1cc(Cn2cnc3c(Cl)nc(N)nc32)c(I)c(OC)c1OC` gave an IC50 of 340 nM.

Regarding `Cc1cnc(Cn2cnc3c(Cl)nc(N)nc32)c(C)c1I`, the selectivity index in data set [2] is 7; in [7], 5. The IC50 in data set [1] is 9 nM; in data set [3] it was 150 nM; in [4] it was 3 nM; in data set [5], 23 nM; in [19], 333000 nM; in data set [6], 30 nM. The IC50 is 1000 nM in data set [20] and 30 nM in data set [8].

Take `Cc1cnc(Cn2cnc3c(Cl)nc(N)nc32)c(C)c1[N+](=O)[O-]`: the IC50 in data set [1] stood at 1000 nM.

In the case of `COc1cc(Cn2cnc3c(Cl)nc(N)nc32)cc(OC)c1OC`, the IC50 in [1] was 2000 nM.

`Cc1cnc(Cn2cnc3c(Cl)nc(N)nc32)c(C)c1O`: the IC50 in data set [1] worked out at 100000 nM.

Regarding `COc1c(C)ncc(Cn2cnc3c(Cl)nc(N)nc32)c1C.Cl`, in data set [9], the Cmax is 28200 ng/mL. For the same molecule, in data set [10], the time to peak (Tmax) was 6 min. Further, the solubility in data set [11] is 186 µg/mL; in data set [14] it was 234 µg/mL; in data set [17] it was 451 µg/mL. For the same molecule, the AUC in data set [12] was 9000 ng·h/mL. Also, the IC50 stood at 20 nM in data set [1]; 18 nM in data set [4]; 900 nM in data set [21]; 50 nM in [6]; 150 nM in [8]. Besides, the inhibition in vivo at 60 mg/kg in [22] was found to be 83%. Moreover, the half-life in data set [15] is 54 min. The Stability in data set [16] was determined as 83%.

Turning to `COc1c(C)c[n+]([O-])c(Cn2cnc3c(Cl)nc(N)nc32)c1C`, the IC50 in data set [1] was 80 nM; in [4], 30 nM; in data set [21], 800 nM; in data set [6], 150 nM; in data set [8] it was 100 nM.

For the molecule `COc1cc(Cn2cnc3cnc(N)nc32)c(Br)c(OC)c1OC`, the IC50 in data set [1] was determined as 50000 nM.

In turn, `C#CCCCn1c(Cc2cc(OC)c(OC)c(OC)c2Cl)nc2c(N)nc(F)nc21` returned an IC50 in [8] of 1200 nM.

In [1], `COc1cc(Cn2cnc3c(S)nc(N)nc32)c(Br)c(OC)c1OC` came in with an IC50 of 100000 nM.

Take `COc1cc(Cn2cnc3c(C)nc(N)nc32)c(Cl)c(OC)c1OC`: the half-inhibitory concentration (IC50) in [1] amounted to 1800 nM.

`Cc1cnc(Cn2cnc3c(Cl)nc(N)nc32)c(C)c1N`: the IC50 in [1] amounted to 5800 nM.

Molecule `COc1cc(Cn2cnc3c(Br)nc(N)nc32)c(Br)c(OC)c1OC` had an IC50 in data set [1] of 55 nM.

`COc1cc(Cn2cnc3c(Cl)nc(N)nc32)c(Cl)c(OC)c1OC` came in with an IC50 in data set [1] of 50 nM. Also, in [23], the solubility was less than 1 µg/mL.

On to `COc1ccc(OC)c(Cn2cnc3c(Cl)nc(N)nc32)c1`, for which, in [1], the IC50 amounted to 3000 nM.

For the molecule `Cc1cnc(Cn2cnc3c(Cl)nc(N)nc32)c(C)c1OC(C)C`, the IC50 in [1] worked out at 1500 nM.

Consider `Cc1cnc(Cn2cnc3c(Cl)nc(N)nc32)c(C)c1Br`, for which the figures for the selectivity index in [2] and in data set [7] were 10 and 43, respectively. Besides, the IC50 in [1] stood at 15 nM; in [3] it was 1300 nM; in data set [4], 2 nM; in data set [5], 130 nM; in data set [19], 400000 nM; in data set [6], 50 nM. Besides, the IC50 was determined as 800 nM in data set [20] and 30 nM in data set [8].

In data set [1], `COc1cc(Cn2cnc3c(N)nc(N)nc32)c(Br)c(OC)c1OC` displayed an IC50 of 17000 nM.

`COc1cc(Cn2cnc3c(Cl)nc(N)nc32)c(Br)c(OC)c1OC`: in [1], the IC50 was found to be 70 nM.

What is called IC50 is the midpoint of a concentration-inhibition curve. A lower IC50 goes with inhibition by little substance. What is called Cmax is the highest concentration seen after dosing. In general, Tmax refers to the time at which the peak concentration occurs. One may read the solubility as how much of the substance goes into solution per volume. Usually AUC stands for the area under the concentration-time curve, a measure of exposure. What is called half-life is how long it takes for the measured level to halve. Read a high half-life as slow loss.

The record behind these values is ChEMBL document CHEMBL1143666 (J Med Chem, 2007).
